Laboratory results as given in patent US11123337B2, “4-methylsulfonyl-substituted piperidine urea compounds” (MYOKARDIA, INC., priority 2015, dated 2021).
Structures can show the parent of a compound that is named as a salt.

Experiments:
[1] = system: adult rat ventricular myocytes; assay: Cardiomyocyte contractility assay (IonOptix edge detection, fractional shortening); format: cell-based; settings: 1 Hz pacing; for Activity at 1.0 uM (fractional shortening activation over basal): 1.0 uM compound; for Activity at 3.0 uM (fractional shortening activation over basal): 3.0 uM compound; for Activity at 10 uM (fractional shortening activation over basal): 10 uM compound
Experimental: Contractility of adult rat ventricular myocytes is determined by edge detection with an IonOptix contractility system. Aliquots of myocytes in Tyrode buffer (137 mM NaCl, 3.7 mM KCl, 0.5 mM MgCl2, 1.5 mM CaCl2), 4 mM HEPES, 11 mM glucose) are placed in a perfusion chamber (Series 20 RC-27NE; Warner Instruments), allowed to adhere to the coverslip, and then perfused with 37° C. Tyrode buffer. Myocytes are filed stimulated at 1 Hz and 10V. Only myocytes with clear striations, quiescent prior to pacing, with a cell length of 120-180 microns, a basal fractional shortening equal to 3-8% of the cell length, and a contraction velocity greater than 100 microns per second are used for contractility experiments. To determine the response to compounds, myocytes are first perfused for 60 seconds with Tyrodes buffer followed by 5 minutes of compound and a 140 second washout with Tyrodes buffer. Data is continuously recorded using IonOptix software. Contractility data is analyzed using Ionwizard software (IonOptix). For each cell, 10-20 contractility transients were averaged and compared under basal (no compound) and compound-treated conditions. Compound activity is measured by effects on fractional shortening (FS), where fractional shortening is the ratio of the peak length of the cell at contraction divided by the basal cell length normalized to 100% for an untreated cell.

bovine cardiac myosin = bovine cardiac myosin (Bos taurus, UniProt Q9BE39); assay: Myosin activation assay (PK/LDH-coupled ATPase, bovine cardiac myofibrils); format: biochemical; settings: AC20 = concentration at which total response is increased by twenty percent
How it was run: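 Skinned bovine cardiac myofibrils (1 mg/mL) in PIPES/MgCl2 buffer pH 6.8 at free Ca2+ giving ~50% (pCa ~6) or <5% (pCa 10) activation, with 50 μM ATP and 3.3% DMSO. ATPase rate from NADH absorbance at 340 nm (PK/LDH coupling) over 15 min at ambient temperature. AC20/AC50 from a four-parameter fit of DMSO-normalised rates.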

Sequence of bovine cardiac myosin (Q9BE39 whole entry): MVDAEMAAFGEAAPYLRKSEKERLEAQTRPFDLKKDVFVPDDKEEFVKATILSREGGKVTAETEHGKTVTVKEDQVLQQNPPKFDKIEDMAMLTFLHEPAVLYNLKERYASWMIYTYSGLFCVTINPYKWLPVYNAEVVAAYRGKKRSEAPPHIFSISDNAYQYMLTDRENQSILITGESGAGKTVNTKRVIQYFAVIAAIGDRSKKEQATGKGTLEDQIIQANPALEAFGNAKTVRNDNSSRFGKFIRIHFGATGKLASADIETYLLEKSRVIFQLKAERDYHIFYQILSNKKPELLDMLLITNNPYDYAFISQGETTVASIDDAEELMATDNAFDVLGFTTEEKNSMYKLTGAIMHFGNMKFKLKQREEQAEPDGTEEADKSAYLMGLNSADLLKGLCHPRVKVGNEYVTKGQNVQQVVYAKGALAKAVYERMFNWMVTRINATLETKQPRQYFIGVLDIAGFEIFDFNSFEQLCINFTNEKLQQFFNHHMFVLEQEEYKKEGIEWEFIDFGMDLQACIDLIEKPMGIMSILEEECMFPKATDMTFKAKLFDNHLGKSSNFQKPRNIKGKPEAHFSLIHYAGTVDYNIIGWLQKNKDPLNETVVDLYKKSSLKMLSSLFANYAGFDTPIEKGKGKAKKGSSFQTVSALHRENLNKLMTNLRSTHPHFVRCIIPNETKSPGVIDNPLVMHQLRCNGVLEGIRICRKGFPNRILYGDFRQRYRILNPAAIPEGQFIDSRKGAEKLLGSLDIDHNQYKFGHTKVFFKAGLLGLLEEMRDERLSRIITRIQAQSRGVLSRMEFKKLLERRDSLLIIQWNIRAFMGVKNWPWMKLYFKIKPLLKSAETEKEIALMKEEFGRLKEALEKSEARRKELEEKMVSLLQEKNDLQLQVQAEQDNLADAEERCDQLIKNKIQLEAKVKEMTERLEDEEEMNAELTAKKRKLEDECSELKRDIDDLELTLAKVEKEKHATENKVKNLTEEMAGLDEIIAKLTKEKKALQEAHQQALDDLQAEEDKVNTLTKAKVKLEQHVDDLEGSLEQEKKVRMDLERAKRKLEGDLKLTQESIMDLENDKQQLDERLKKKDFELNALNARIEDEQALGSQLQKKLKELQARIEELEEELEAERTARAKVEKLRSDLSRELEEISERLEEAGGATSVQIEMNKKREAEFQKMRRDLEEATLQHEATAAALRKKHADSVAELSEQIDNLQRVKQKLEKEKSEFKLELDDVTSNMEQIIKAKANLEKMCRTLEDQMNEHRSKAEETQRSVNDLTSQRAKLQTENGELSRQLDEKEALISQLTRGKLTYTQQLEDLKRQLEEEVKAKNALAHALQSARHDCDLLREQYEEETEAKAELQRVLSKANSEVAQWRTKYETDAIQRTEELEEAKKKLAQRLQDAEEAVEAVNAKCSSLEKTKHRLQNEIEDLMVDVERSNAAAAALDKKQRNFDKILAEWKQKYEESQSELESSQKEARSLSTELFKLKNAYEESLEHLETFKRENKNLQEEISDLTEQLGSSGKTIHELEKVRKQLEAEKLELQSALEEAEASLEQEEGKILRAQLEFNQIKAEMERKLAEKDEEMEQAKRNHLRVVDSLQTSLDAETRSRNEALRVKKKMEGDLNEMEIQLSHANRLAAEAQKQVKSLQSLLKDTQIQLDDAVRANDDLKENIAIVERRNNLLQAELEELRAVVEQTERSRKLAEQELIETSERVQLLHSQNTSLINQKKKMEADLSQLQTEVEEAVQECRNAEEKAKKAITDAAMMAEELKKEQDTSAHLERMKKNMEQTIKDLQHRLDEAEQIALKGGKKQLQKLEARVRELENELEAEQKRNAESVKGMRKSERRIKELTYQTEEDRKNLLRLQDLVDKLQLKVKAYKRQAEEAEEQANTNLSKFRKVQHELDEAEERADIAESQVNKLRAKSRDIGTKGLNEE
Sequence of bovine cardiac myosin (P85100 whole entry partner): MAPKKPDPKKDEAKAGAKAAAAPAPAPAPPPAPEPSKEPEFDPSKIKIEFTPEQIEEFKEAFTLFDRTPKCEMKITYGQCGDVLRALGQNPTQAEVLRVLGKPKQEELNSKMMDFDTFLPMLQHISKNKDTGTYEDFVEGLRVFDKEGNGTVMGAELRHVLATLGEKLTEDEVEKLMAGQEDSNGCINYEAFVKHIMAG
Sequence of bovine cardiac myosin (Q3SZE5 whole entry partner): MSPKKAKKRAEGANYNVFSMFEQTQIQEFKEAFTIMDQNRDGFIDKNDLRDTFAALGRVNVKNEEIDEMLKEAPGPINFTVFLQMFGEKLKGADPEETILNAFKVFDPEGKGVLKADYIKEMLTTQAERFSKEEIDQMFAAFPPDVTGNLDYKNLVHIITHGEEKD

## CC(C)(C1CCN(C(=O)Nc2ccncc2)CC1)S(=O)(=O)c1cccc(F)c1 [Compound 32, 4-(2-((3-fluorophenyl)sulfonyl)propan-2-yl)-N-(pyridin-4-yl)piperidine-1-carboxamide]
[1]
  Activity at 1.0 uM (fractional shortening activation over basal): ++ (++ represents fractional shorting activation values from 20% to 50% over basal)
Bovine cardiac myosin
  Myosin Activation (AC20): +++ (+++ represents myosin activation value AC20 < 2 μM)

## C[C@](F)(C1CCN(C(=O)Nc2ccnc(CO)c2)CC1)S(=O)(=O)c1cccc(F)c1 [Compound 287, (R)-4-(1-fluoro-1-((3-fluorophenyl)sulfonyl)ethyl)-N-(2-(hydroxymethyl)pyridin-4-yl)piperidine-1-carboxamide]
[1]
  Activity at 1.0 uM (fractional shortening activation over basal): ++ (++ represents fractional shorting activation values from 20% to 50% over basal)
  Activity at 3.0 uM (fractional shortening activation over basal): ++ (++ represents fractional shorting activation values from 20% to 50% over basal)
Bovine cardiac myosin
  Myosin Activation (AC20): +++ (+++ represents myosin activation value AC20 < 2 μM)

## CC(F)(C1CCN(C(=O)Nc2ccnnc2)CC1)S(=O)(=O)c1cccc(F)c1 (centres unmarked) [Compound 6, 4-(1-Fluoro-1-((3-fluorophenyl)sulfonyl)ethyl)-N-(pyridazin-4-yl)piperidine-1-carboxamide trifluoroacetic acid salt]
[1]
  Activity at 10 uM (fractional shortening activation over basal): ++ (++ represents fractional shorting activation values from 20% to 50% over basal)
Bovine cardiac myosin
  Myosin Activation (AC20): ++ (++ represents myosin activation value AC20 from 2 μM-5 μM)

## Cn1cc(S(=O)(=O)C(C)(C)C2CCN(C(=O)Nc3ccon3)CC2)c(C(F)F)n1 [Compound 149, 4-(2-((3-(difluoromethyl)-1-methyl-1H-pyrazol-4-yl)sulfonyl)propan-2-yl)-N-(isoxazol-3-yl)piperidine-1-carboxamide]
[1]
  Activity at 3.0 uM (fractional shortening activation over basal): ++ (++ represents fractional shorting activation values from 20% to 50% over basal)
Bovine cardiac myosin
  Myosin Activation (AC20): ++ (++ represents myosin activation value AC20 from 2 μM-5 μM)

## Cn1nc(C(F)(F)F)cc1S(=O)(=O)[C@@](C)(F)C1CCN(C(=O)Nc2ccon2)CC1 [Compound 18, (R)-4-(1-Fluoro-1-((1-methyl-3-(trifluoromethyl)-1H-pyrazol-5-yl)sulfonyl)ethyl)-N-(isoxazol-3-yl)piperidine-1-carboxamide]
[1]
  Activity at 1.0 uM (fractional shortening activation over basal): +++ (+++ represents fractional shortening activation values greater than 50% over basal)
Bovine cardiac myosin
  Myosin Activation (AC20): +++ (+++ represents myosin activation value AC20 < 2 μM)

## O=C(Nc1ccnnc1)N1CCC(C(F)(F)S(=O)(=O)c2cccc(F)c2)CC1 [Compound 5, 4-(Difluoro((3-fluorophenyl)sulfonyl)methyl)-N-(pyridazin-4-yl)piperidine-1-carboxamide]
[1]
  Activity at 1.0 uM (fractional shortening activation over basal): ++ (++ represents fractional shorting activation values from 20% to 50% over basal)
  Activity at 10 uM (fractional shortening activation over basal): +++ (+++ represents fractional shortening activation values greater than 50% over basal)
Bovine cardiac myosin
  Myosin Activation (AC20): ++ (++ represents myosin activation value AC20 from 2 μM-5 μM)

## Cn1nc(Cl)cc1S(=O)(=O)C(C)(C)C1CCN(C(=O)Nc2ccon2)CC1 [Compound 129, 4-(2-((3-chloro-1-methyl-1H-pyrazol-5-yl)sulfonyl)propan-2-yl)-N-(isoxazol-3-yl)piperidine-1-carboxamide]
[1]
  Activity at 3.0 uM (fractional shortening activation over basal): +++ (+++ represents fractional shortening activation values greater than 50% over basal)
Bovine cardiac myosin
  Myosin Activation (AC20): +++ (+++ represents myosin activation value AC20 < 2 μM)

## Cn1cc(S(=O)(=O)[C@@](C)(F)C2CCN(C(=O)Nc3ccon3)CC2)c(C(F)F)n1 [Compound 20, (R)-4-(1-((3-(Difluoromethyl)-1-methyl-1H-pyrazol-4-yl)sulfonyl)-1-fluoroethyl)-N-(isoxazol-3-yl)piperidine-1-carboxamide]
[1]
  Activity at 1.0 uM (fractional shortening activation over basal): + (+ represents fractional shorting activation <20% over basal)
  Activity at 3.0 uM (fractional shortening activation over basal): ++ (++ represents fractional shorting activation values from 20% to 50% over basal)
Bovine cardiac myosin
  Myosin Activation (AC20): +++ (+++ represents myosin activation value AC20 < 2 μM)

## COc1ccc(S(=O)(=O)C(C)(F)C2CCN(C(=O)Nc3ccon3)CC2)cn1 (centres unmarked) [Compound 246, 4-(1-fluoro-1-((6-methoxypyridin-3-yl)sulfonyl)ethyl)-N-(isoxazol-3-yl)piperidine-1-carboxamide]
[1]
  Activity at 3.0 uM (fractional shortening activation over basal): +++ (+++ represents fractional shortening activation values greater than 50% over basal)
Bovine cardiac myosin
  Myosin Activation (AC20): ++ (++ represents myosin activation value AC20 from 2 μM-5 μM)

## CC(C)(C1CCN(C(=O)Nc2ccnnc2)CC1)S(=O)(=O)c1cccc(F)c1 [Compound 7, 4-(2-((3-fluorophenyl)sulfonyl)propan-2-yl)-N-(pyridazin-4-yl)piperidine-1-carboxamide]
[1]
  Activity at 1.0 uM (fractional shortening activation over basal): ++ (++ represents fractional shorting activation values from 20% to 50% over basal)
  Activity at 10 uM (fractional shortening activation over basal): ++ (++ represents fractional shorting activation values from 20% to 50% over basal)
Bovine cardiac myosin
  Myosin Activation (AC20): +++ (+++ represents myosin activation value AC20 < 2 μM)

## Cn1nc(C(F)(F)F)cc1S(=O)(=O)C(C)(F)C1CCN(C(=O)Nc2ccnnc2)CC1 (centres unmarked) [Compound 277, 4-(1-fluoro-1-((1-methyl-3-(trifluoromethyl)-1H-pyrazol-5-yl)sulfonyl)ethyl)-N-(pyridazin-4-yl)piperidine-1-carboxamide]
Bovine cardiac myosin
  Myosin Activation (AC20): +++ (+++ represents myosin activation value AC20 < 2 μM)

## CC(C)(C1(F)CCN(C(=O)Nc2ccnnc2)CC1)S(=O)(=O)c1cccc(F)c1 [Compound 30, 4-Fluoro-4-(2-((3-fluorophenyl)sulfonyl)propan-2-yl)-N-(pyridazin-4-yl)piperidine-1-carboxamide]
Bovine cardiac myosin
  Myosin Activation (AC20): ++ (++ represents myosin activation value AC20 from 2 μM-5 μM)

## O=C(Nc1ccnnc1)N1CCC(F)(C2(S(=O)(=O)c3cccc(F)c3)CCC2)CC1 [Compound 166, 4-fluoro-4-(1-((3-fluorophenyl)sulfonyl)cyclobutyl)-N-(pyridazin-4-yl)piperidine-1-carboxamide]
Bovine cardiac myosin
  Myosin Activation (AC20): ++ (++ represents myosin activation value AC20 from 2 μM-5 μM)

## O=C(Nc1cncs1)N1CCC(C2(S(=O)(=O)c3cccc(F)c3)CC2)CC1 [Compound 37, 4-(1-((3-fluorophenyl)sulfonyl)cyclopropyl)-N-(thiazol-5-yl)piperidine-1-carboxamide]
Bovine cardiac myosin
  Myosin Activation (AC20): +++ (+++ represents myosin activation value AC20 < 2 μM)

## O=C(Nc1ccnnc1)N1CCC(C(F)(F)S(=O)(=O)c2ccc(OC(F)(F)F)cc2)CC1 [Compound 48, 4-(difluoro((4-(trifluoromethoxy)phenyl)sulfonyl)methyl)-N-(pyridazin-4-yl)piperidine-1-carboxamide]
Bovine cardiac myosin
  Myosin Activation (AC20): ++ (++ represents myosin activation value AC20 from 2 μM-5 μM)
